Laboratory results published in ChEMBL document CHEMBL1201862, “PubChem BioAssay data set” (2004).
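Tested at 5 concentrations; 48 h exposure; 96-well plates; endpoints linearly interpolated, else capped at highest concentration. GI50 marks 50% less growth.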 Calls of active or inactive are those of the source. Cut-off read from the data, not from the text of the source: active = GI50 up to about 1.1 µM and inactive = higher.

How the values were obtained:
Test in all cases: NCI anticancer screen, dose series, 48 h
[1] = system: RPMI-8226
[2] = system: 786-0
[3] = system: UACC-62
[4] = system: KM12
[5] = system: COLO 205
[6] = system: SK-OV-3
[7] = system: OVCAR-5
[8] = system: A549
[9] = system: LOX IMVI
[10] = system: NCI/ADR-RES
[11] = system: K562
[12] = system: BT-549
[13] = system: SF-295
[14] = system: OVCAR-8
[15] = system: HCC 2998
[16] = system: HOP-62
[17] = system: DU-145
[18] = system: NCI-H226
[19] = system: SW-620

Measured: GI50

Nc1ccn(C2CCC(CO)O2)c(=O)n1 (stereo not given)
inactive: [1] > 100 µM | [2] > 1000 µM | [3] > 100 µM | [4] > 100 µM | [5] > 100 µM | [6] > 100 µM | [7] > 100 µM | [8] > 100 µM | [9] > 100 µM | [10] 159 µM | [11] > 100 µM | [12] > 1000 µM | [13] > 100 µM | [14] 156 µM | [15] > 100 µM | [16] > 100 µM | [17] 719 µM | [18] > 93.5 µM | [19] > 94.8 µM

CCC/N=C(/NC(=O)c1ccc(Cl)cc1)SC
inactive: [1] 26.5 µM | [2] > 100 µM | [3] > 100 µM | [4] > 100 µM | [5] > 100 µM | [6] > 100 µM | [7] > 100 µM | [8] > 100 µM | [9] > 100 µM | [10] > 100 µM | [11] 44.1 µM | [12] 25.5 µM | [13] > 100 µM | [14] > 100 µM | [15] > 100 µM | [16] > 100 µM | [17] > 100 µM | [18] 43.1 µM | [19] > 100 µM

O=C1C2CC=CCC2C(=O)N1n1c(Cc2ccc(Cl)cc2)n[nH]c1=O (stereo not given)
inactive: [1] > 100 µM | [2] > 100 µM | [3] > 100 µM | [4] > 100 µM | [5] > 100 µM | [6] > 100 µM | [7] > 100 µM | [8] > 100 µM | [9] > 100 µM | [10] > 100 µM | [11] > 100 µM | [12] > 100 µM | [13] > 100 µM | [14] > 100 µM | [15] > 100 µM | [16] > 100 µM | [17] > 100 µM | [18] > 100 µM | [19] > 100 µM

COC(=O)C1=C(C)NC(C)=C(C(=O)OC)C1c1ccc(/[N+]([O-])=C/c2ccccc2)cc1
inactive: [1] 66.1 µM | [2] 17.3 µM | [3] 37.6 µM | [4] > 100 µM | [5] 19 µM | [6] > 100 µM | [7] > 100 µM | [8] 96.6 µM | [9] 45 µM | [10] 66.5 µM | [11] 23.6 µM | [12] 18.8 µM | [13] 46.9 µM | [14] 19.7 µM | [15] > 100 µM | [16] 83.2 µM | [17] > 100 µM | [18] 62.4 µM | [19] 20 µM

N[C@H]1c2c(Br)sc(Br)c2C(=O)[C@H]1O
inactive: [1] 27.4 µM | [2] 18.6 µM | [3] 6.79 µM | [4] 34.9 µM | [5] 6.18 µM | [6] 12.3 µM | [7] 22 µM | [8] 24.9 µM | [9] 3.61 µM | [10] 16 µM | [11] 3.44 µM | [12] 6.3 µM | [13] 21.7 µM | [14] 12.9 µM | [15] 13.8 µM | [16] 18.2 µM | [17] 20.3 µM | [18] 22.2 µM | [19] 6.41 µM

N#Cc1c(-c2ccc([N+](=O)[O-])cc2)c2c([nH]c1=O)-c1ccccc1CCC2
inactive: [1] 30.8 µM | [2] > 100 µM | [3] 28.1 µM | [4] 40.7 µM | [5] 83.9 µM | [6] > 100 µM | [7] > 100 µM | [8] 42.8 µM | [9] 56.6 µM | [10] 50.5 µM | [11] 36.7 µM | [12] 24.9 µM | [13] 37.2 µM | [14] 55.3 µM | [15] 22.6 µM | [16] 40.5 µM | [17] 28.1 µM | [18] 44 µM | [19] 63.5 µM

[O-][n+]1cn[n+]([O-])c2ccccc21
inactive: [1] 28.6 µM | [2] 14.6 µM | [3] 16.3 µM | [4] 19.5 µM | [5] 19.2 µM | [6] 27.3 µM | [7] > 100 µM | [8] 39.6 µM | [9] 23.9 µM | [10] 23.5 µM | [11] 6.95 µM | [12] 23.7 µM | [13] 30.3 µM | [14] 18.9 µM | [15] 27.1 µM | [16] 17.9 µM | [17] 63.1 µM | [18] > 100 µM | [19] 6.82 µM

COc1cc(/C=C2\CC(C)C/C(=C\c3ccc(O)c(OC)c3)C2=O)ccc1O (stereo not given)
inactive: [1] 3.58 µM | [2] > 20.2 µM | [3] 1.85 µM | [4] 1.85 µM | [5] 10.9 µM | [6] 3.49 µM | [7] 19.6 µM | [8] 3.64 µM | [9] 2.29 µM | [10] 17.5 µM | [11] 4.48 µM | [12] 3.23 µM | [13] 10.6 µM | [14] 9.2 µM | [15] 3.21 µM | [16] 3.46 µM | [17] 3.72 µM | [18] 4.85 µM | [19] 2.24 µM

COc1ccc2c(c1)OCC1(O)Cc3ccccc3OC21 (stereo not given)
inactive: [1] > 100 µM | [2] > 100 µM | [3] > 100 µM | [4] > 100 µM | [5] > 100 µM | [6] > 100 µM | [7] > 100 µM | [8] > 100 µM | [9] > 100 µM | [10] > 100 µM | [11] > 100 µM | [12] > 100 µM | [13] > 100 µM | [14] > 100 µM | [15] > 100 µM | [16] > 100 µM | [17] > 100 µM | [18] > 100 µM | [19] > 100 µM

CNC(c1ccncc1)C(NC)c1ccncc1 (stereo not given)
inactive: [1] > 100 µM | [2] > 100 µM | [3] > 100 µM | [4] > 100 µM | [5] > 100 µM | [6] > 100 µM | [7] > 100 µM | [8] > 100 µM | [9] > 100 µM | [10] > 100 µM | [11] > 100 µM | [12] > 100 µM | [13] > 100 µM | [14] > 100 µM | [15] > 100 µM | [16] > 100 µM | [17] > 100 µM | [18] > 100 µM | [19] > 100 µM
